Consider 28 compounds from patent US8507538B2, “Selective heterocyclic sphingosine 1 phosphate receptor modulators” (Receptos, Inc., priority 2009, dated 2013).

The inhibition in vivo is the drop in the measured response relative to a control, in per cent. What is called ED50 is the midpoint of the dose-response relation.

pEC50: −log10 of the molar value. Counter-ions that a name gives are not always drawn. Like-named read-outs stand apart in the source and are kept apart here.

Assay [1] has as its system CD4 or CD8 positive T cells. Put plainly: Lymphopenia in rats. The class given is in vivo. Particulars: rat, 24 h after a 0.2 mg/kg single dose. The procedure:
In rats: Female rats (Simonsen Laboratories, Gilroy Calif.) were housed in an ALAAC accredited facility and the research was approved by the facilities Institutional Animal Care and Use Committee (IACUC). The animals were acclimated to the laboratory for at least 5 days prior to initiation of experiments. Rats (n=3/compound/time-point) were dosed by oral gavage with 1 mg/kg compound formulated in a vehicle consisting of 5% DMSO/5% Tween 20 and 90% 0.1N HCL. Control rats were dosed PO with the vehicle. Whole blood was collected from isoflurane anesthetized rats via the retro-orbital sinus and terminal samples were collected by cardiac puncture into EDTA. Whole blood was incubated with mouse anti-rat CD32 (BD #550271), PE-mouse anti-rat CD45R/B220 (BD #554881), PECy5-mouse anti-rat CD4 (BD #554839), and APC-mouse anti-rat CD8a (eBioscience #17-0084) for 30 minutes on ice. Red blood cells were lysed using BD Pharm. Lyse Lysing buffer (#555899) and white blood cells were analyzed with a BD FACSArray. Lymphopenia was expressed as the % of white blood cells that were CD4 or CD8 positive T cells. The overall lymphopenia response over 24 h was estimated by calculating the area under the effect curve (AUEC) using the linear trapezoidal rule. In some experiments, total lymphocyte counts were determined using a standard impediance based veterinary hematology analyzer (IDEXX Preclinical Research Services, Sacramento, Calif.).
The percentage of lymphopenia at 24 h after a 0.2 mg/kg single dose regiment is reported. […] N/A is not available.

The test system of assay [2] is CD4 or CD8 positive T cells. Nature of the assay: Lymphopenia in rats. The class given is in vivo. To be noted: rat, at 24 h after a 3-5 day dosing regimen.
A further assay addresses T1, S1P3 (Homo sapiens, UniProt Q99500).
T1 construct: host or cells: NFAT-bla HEK293T co-expressing Gα15
Put plainly: Specificity over other S1P receptors: S1P3-Gα15 NFAT-bla HEK293T. In kind it is cell-based. To be noted: without Forskolin; read-out: S1P3 agonist value (EC50). The procedure:
(§1) Cells were seeded into 384-well black wall/clear bottom plates at 10^4 cells/well/19.5 μl assay media (DMEM-phenol free, 0.5% charcoal/dextran stripped serum, 2 mM glutamine, 0.1 mM NEAA, 1 mM Na-Pyruvate, 25 mM Hepes) and incubated for 18 hrs at 37° C. in 5% CO2. Dose response curves (10-point) were generated in 10 mM Hepes, 0.1% Pluronic F127, in the presence of Forskolin. Cells were treated with 0.5 μl compound in the presence of 2 μM Forskolin for 4 hrs at 37° C. The FRET-based β-lactamase fluorescent substrate (LiveBLAzer™ FRET B/G Loading Kit CC4-AM; Invitrogen) was prepared according to manufacturer's directions, and incubated with cells for 2 hrs at room temperature. Plates were read at Ex:410/Em:458 and Ex:410/Em:522, and the response ratio determined. Data was analyzed by non-linear regression to determine the EC50 for inhibition of Forskolin induced cAMP.
(§2) To assess compound specificity on other S1P receptors the following cell lines were used: S1P2 CRE-bla CHOK1, S1P3-Gα15 NFAT-bla HEK293T (Invitrogen), S1P4-bla TANGO U2OS (Invitrogen), S1P5-bla TANGO U2OS (Invitrogen). The same assay set up for S1P1 was used but without Forskolin. S1P4 and S1P5 assays were performed in FreeStyle Expression medium (Invitrogen). S1P5 cells were incubated for 48 hrs in prior to treatment with compound.

Another assay has as its target T2, S1P5 (Homo sapiens, UniProt Q9H228).
T2 construct: Tango fusion (own knowledge: TEV protease site + GAL4-VP16 transcription factor fused to the receptor's C-terminus); host or cells: Tango bla U2OS
Put plainly: Specificity over other S1P receptors: S1P5-bla TANGO U2OS. In kind it is cell-based. Particulars: without Forskolin, FreeStyle Expression medium; read-out: S1P5 agonist value (EC50). The procedure:
as §1, §2

The target of another assay is S1P1/EDG1 (Homo sapiens, UniProt P21453). Put plainly: S1P1 CRE-bla CHOK1 reporter assay (inhibition of Forskolin induced cAMP). The class given is cell-based. Put shortly:
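Stable CRE-bla CHO-K1 clone expressing human S1P1, serum-starved (0.5% stripped serum) 18 h, then treated with compound (10-point curve) plus 2 μM forskolin for 4 h at 37 °C. β-lactamase FRET ratio (458/522 nm) read after 2 h substrate loading; EC50 for inhibition of forskolin-induced cAMP by non-linear regression.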

[3] abbreviates: Table 3, read-out: S1P1 agonist value (EC50).
Where [4] appears, read: agonist activity range, Table 2, read-out: S1P1 ACTIVITY

Sequence of S1P1/EDG1 (P21453 whole entry): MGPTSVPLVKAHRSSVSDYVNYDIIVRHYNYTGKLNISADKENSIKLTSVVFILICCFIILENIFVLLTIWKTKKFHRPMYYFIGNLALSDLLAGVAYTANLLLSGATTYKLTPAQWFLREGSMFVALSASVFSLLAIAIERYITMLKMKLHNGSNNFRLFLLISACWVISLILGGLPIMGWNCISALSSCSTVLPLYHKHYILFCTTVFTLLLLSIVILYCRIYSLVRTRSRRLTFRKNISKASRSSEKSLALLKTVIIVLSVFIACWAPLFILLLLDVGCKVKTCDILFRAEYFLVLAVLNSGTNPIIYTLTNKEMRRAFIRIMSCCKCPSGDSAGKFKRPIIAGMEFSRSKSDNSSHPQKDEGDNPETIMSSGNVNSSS
T2 sequence (Q9H228 whole entry, the tested form may be a part): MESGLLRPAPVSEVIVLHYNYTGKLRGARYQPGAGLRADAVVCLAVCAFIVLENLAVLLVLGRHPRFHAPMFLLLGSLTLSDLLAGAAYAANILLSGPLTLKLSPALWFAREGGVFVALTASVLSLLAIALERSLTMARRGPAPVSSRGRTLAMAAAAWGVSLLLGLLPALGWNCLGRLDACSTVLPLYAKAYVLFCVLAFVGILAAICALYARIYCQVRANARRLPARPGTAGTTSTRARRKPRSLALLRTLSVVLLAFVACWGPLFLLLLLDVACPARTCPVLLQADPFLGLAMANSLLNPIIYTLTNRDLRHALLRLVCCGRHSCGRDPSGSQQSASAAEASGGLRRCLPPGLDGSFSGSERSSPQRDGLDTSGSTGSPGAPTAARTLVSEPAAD
T1 sequence (Q99500 whole entry): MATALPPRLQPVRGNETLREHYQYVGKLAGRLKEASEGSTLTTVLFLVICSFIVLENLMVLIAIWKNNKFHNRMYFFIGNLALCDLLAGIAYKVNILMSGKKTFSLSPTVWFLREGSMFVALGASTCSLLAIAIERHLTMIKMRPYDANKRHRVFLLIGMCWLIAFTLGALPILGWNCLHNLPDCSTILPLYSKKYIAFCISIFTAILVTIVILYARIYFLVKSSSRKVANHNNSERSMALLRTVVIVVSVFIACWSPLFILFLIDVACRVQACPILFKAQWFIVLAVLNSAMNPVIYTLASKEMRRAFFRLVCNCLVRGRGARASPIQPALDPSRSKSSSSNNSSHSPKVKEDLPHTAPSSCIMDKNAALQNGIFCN

Take “(R)-N-((R)-4-(5-(3-cyano-4-isopropoxyphenyl)-1,3,4-thiadiazol-2-yl)-2,3-dihydro-1H-inden-1-yl)-3-(dimethylamino)pyrrolidine-1-carboxamide [Compound 56]”: in assay [1], the “% Lymphopenia after 24 h (0.2 mg/kg)” value is given as 52%.

Turning to “(R)-N-(4-(2-(3-cyano-4-isopropoxyphenyl)thiazol-5-yl)-2,3-dihydro-1H-inden-1-yl)pyrrolidine-1-carboxamide [Compound 172]”, the “% Lymphopenia after 24 h (0.2 mg/kg)” value in assay [1] is recorded as 22%. Besides, the “ED50, estimated dose needed to produce 50% lymphopenia” value in assay [2] was 0.20 mg/kg.

The compound `CC(C)Oc1ccc(-c2ncc(-c3cccc4c3CC[C@H]4NC(=O)N3CCOCC3)s2)cc1C#N` [Compound 186, (R)-N-(4-(2-(3-cyano-4-isopropoxyphenyl)thiazol-5-yl)-2,3-dihydro-1H-inden-1-yl)morpholine-4-carboxamide] showed an inhibition in vivo at 0.2 mg/kg in assay [1] (CD8 positive, po) of 25%. Besides, the pEC50 at S1P3 is under 5.00; at S1P5, 6.90; on S1P1/EDG1 (setting [3]), 9.39. Besides, in assay [2] (CD8 positive, read-out: ED50, estimated dose needed to produce 50% lymphopenia), the ED50 is 0.2 mg/kg.

As for “(R)-N-(4-(2-(3-cyano-4-isopropoxyphenyl)thiazol-5-yl)-2,3-dihydro-1H-inden-1-yl)sulfamide [Compound 166]”, in assay [1], the “% Lymphopenia after 24 h (0.2 mg/kg)” value amounted to 47%. The “ED50, estimated dose needed to produce 50% lymphopenia” value in assay [2] was 0.07 mg/kg.

`CC(C)Oc1ccc(-c2ncc(-c3cccc4c3CC[C@@H]4NS(=O)(=O)CCN3CC[C@H](N)C3)s2)cc1C#N` [Compound 135]: the pEC50 on S1P1/EDG1 (setting [4]) was under 8.30.

For `CC(C)Oc1ccc(-c2nnc(-c3cccc4c3CC[C@@H]4NCC(=O)N3CCOCC3)s2)cc1C#N` [Compound 24], on S1P1/EDG1 (setting [4]), the pEC50 was 8.30 to 9.30.

In the case of `CC(C)Oc1ccc(-c2ncc(-c3cccc4c3CCC4N3CCN(C)CC3)s2)cc1C#N` (stereo not drawn) [Compound 216], the pEC50 on S1P1/EDG1 (setting [4]) is 8.30 to 9.30.

Consider `CC(C)Oc1ccc(-c2ncc(-c3cccc4c3CC[C@@H]4NC(=O)N3CCC[C@H](O)C3)s2)cc1C#N` [Compound 198], for which, on S1P1/EDG1 (setting [4]), the pEC50 is 9.30 to 10.30.

In the case of “(R)-2-(N-(4-(5-(3-cyano-4-isopropoxyphenyl)-1,3,4-thiadiazol-2-yl)-2,3-dihydro-1H-inden-1-yl)sulfamoyl)-N,N-dimethylacetamide [Compound 43]”, the “% Lymphopenia after 24 h (0.2 mg/kg)” value in assay [1] was 40%. For the same compound, the pEC50 was 6.35 at S1P5 and 10.15 on S1P1/EDG1 (setting [3]).

Regarding `CC(C)Oc1ccc(-c2ncc(-c3cccc4c3CC[C@@H]4NS(=O)(=O)CCN3CCCC(O)C3)s2)cc1C#N` (stereo in doubt) [Compound 141, N-((S)-4-(2-(3-cyano-4-isopropoxyphenyl)thiazol-5-yl)-2,3-dihydro-1H-inden-1-yl)-2-((R)-3-hydroxypiperidin-1-yl)ethanesulfonamide], the pEC50 at S1P1/EDG1 (setting [4]) was 8.30 to 9.30.

As for `CC(C)Oc1ccc(-c2ncc(-c3cccc4c3CC[C@@H]4NC(=O)CO)s2)cc1C#N` [Compound 73, (S)-N-(4-(2-(3-cyano-4-isopropoxyphenyl)thiazol-5-yl)-2,3-dihydro-1H-inden-1-yl)-2-hydroxyacetamide], the pEC50 at S1P1/EDG1 (setting [4]) was 9.30 to 10.30.

`CC(C)Oc1ccc(-c2ccc(-c3cccc4c3CC[C@H]4N)s2)cc1C#N` [Compound 225, (R)-5-(5-(1-amino-2,3-dihydro-1H-inden-4-yl)thiophen-2-yl)-2-isopropoxybenzonitrile]: the pEC50 on S1P1/EDG1 (setting [4]) is under 8.30.

Turning to `CC(C)Oc1ccc(-c2ncc(-c3cccc4c3CC[C@@H]4NCC(=O)N3CCNCC3)s2)cc1C#N` [Compound 107], the pEC50 at S1P1/EDG1 (setting [4]) was 8.30 to 9.30.

Consider `CC(C)Oc1ccc(-c2ncc(-c3cccc4c3CC[C@@H]4NC(=O)N3CC[C@H](O)C3)s2)cc1C#N` [Compound 177], for which, at S1P1/EDG1 (setting [4]), the pEC50 was 9.30 to 10.30.

In the case of `CC(C)Oc1ccc(-c2ncc(-c3cccc4c3CC[C@@H]4NC(=O)N3CC[C@H](O)C3)s2)cc1C#N` [Compound 175], the pEC50 on S1P1/EDG1 (setting [4]) is 8.30 to 9.30.

As for `CC(C)Oc1ccc(-c2nnc(-c3cccc4c3CC[C@@H]4NCC(=O)N(C)C)s2)cc1C#N` [Compound 21, (S)-2-((4-(5-(3-cyano-4-isopropoxyphenyl)-1,3,4-thiadiazol-2-yl)-2,3-dihydro-1H-inden-1-yl)amino)-N,N-dimethylacetamide hydrochloride], the pEC50 on S1P1/EDG1 (setting [4]) was 8.30 to 9.30.

On to `CC(C)Oc1ccc(-c2ncc(-c3cccc4c3CC[C@@H]4NC(=O)N3CCOCC3)s2)cc1C#N` [Compound 187], for which the pEC50 at S1P1/EDG1 (setting [4]) is 8.30 to 9.30.

Consider `COC(=O)N[C@H]1CCc2c(-c3nnc(-c4ccc(OC(C)C)c(C#N)c4)s3)cccc21` [Compound 16, (S)-methyl(4-(5-(3-cyano-4-isopropoxyphenyl)-1,3,4-thiadiazol-2-yl)-2,3-dihydro-1H-inden-1-yl)carbamate], for which, on S1P1/EDG1 (setting [4]), the pEC50 was 8.30 to 9.30.

As to `CC(C)Oc1ccc(-c2ncc(-c3cccc4c3CC[C@@H]4NCCS(C)(=O)=O)s2)cc1C#N` [Compound 221, (S)-2-isopropoxy-5-(5-(1-((2-(methylsulfonyl)ethyl)amino)-2,3-dihydro-1H-inden-4-yl)thiazol-2-yl)benzonitrile], the pEC50 on S1P1/EDG1 (setting [4]) was 9.30 to 10.30.

For the compound `COCCN[C@H]1CCc2c(-c3cnc(-c4ccc(OC(C)C)c(C#N)c4)s3)cccc21` [Compound 93], the pEC50 at S1P1/EDG1 (setting [4]) was 8.30 to 9.30.

For the compound `CCOc1ccc(-c2nnc(-c3cccc4c3CCC4O)s2)cc1OCC` (stereo not drawn) [Compound 3], the pEC50 at S1P1/EDG1 (setting [4]) is 8.30 to 9.30.

For `CC(C)Oc1ccc(-c2ncc(-c3cccc4c3CC[C@@H]4NC(=O)CN(C)C)s2)cc1C#N` [Compound 81], at S1P1/EDG1 (setting [4]), the pEC50 was 8.30 to 9.30.

With `CC(C)Oc1ccc(-c2ncc(-c3cccc4c3CCC4N3CC[C@H](N)C3)s2)cc1C#N` (stereo partly drawn) [Compound 211], the pEC50 at S1P1/EDG1 (setting [4]) is 8.30 to 9.30.

Turning to `COC(=O)CC1CCN(CCS(=O)(=O)N[C@H]2CCc3c(-c4cnc(-c5ccc(OC(C)C)c(C#N)c5)s4)cccc32)CC1` [Compound 147], the pEC50 at S1P1/EDG1 (setting [4]) is 8.30 to 9.30.

As to `CC(C)Oc1ccc(-c2ncc(-c3cccc4c3CC[C@@H]4NC(=O)N3CC[C@@H](N)C3)s2)cc1C#N` [Compound 178], the pEC50 at S1P1/EDG1 (setting [4]) was 9.30 to 10.30.

As for `CC(C)Oc1ccc(-c2ncc(-c3cccc4c3CC[C@@H]4NS(=O)(=O)CCN3CCC(CO)CC3)s2)cc1C#N` [Compound 149], at S1P1/EDG1 (setting [4]), the pEC50 is 8.30 to 9.30.

As for `CC(C)Oc1ccc(-c2ncc(-c3cccc4c3CC[C@@H]4NS(=O)(=O)CCN3CC(O)C3)s2)cc1C#N` [Compound 150], the pEC50 on S1P1/EDG1 (setting [4]) was 8.30 to 9.30.

Turning to `CC(C)Oc1ccc(-c2ccc(-c3cccc4c3CCC4O)s2)cc1C#N` (stereo not drawn) [Compound 223, 5-(5-(1-hydroxy-2,3-dihydro-1H-inden-4-yl)thiophen-2-yl)-2-isopropoxybenzonitrile], the pEC50 on S1P1/EDG1 (setting [4]) was 8.30 to 9.30.
